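These data come from cells grown in 96-well plates and exposed to compound for 48 hours at five concentrations. The concentration for full growth arrest is given as TGI.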

Common to all, as to assay: NCI-60 cell line screen, 48 h
In experiment [1] the test system is PC-3 prostate.
For experiment [2], the system named is SN12C renal.
The test system of experiment [3] is A549 NSCLC.
The subject of experiment [4] is MDA-N.
Experiment [5] concerns MOLT-4 leukemia.
The subject of experiment [6] is UACC-257 melanoma.
Experiment [7] deals with HOP-62 NSCLC.
The test system of experiment [8] is 786-0 renal.
Experiment [9] concerns SNB-75 CNS.
Experiment [10] deals with OVCAR-5 ovarian.
In experiment [11] the test system is UACC-62 melanoma.
The test system of experiment [12] is NCI-H23 lung.
In experiment [13] the test system is COLO 205 colon.
The subject of experiment [14] is CCRF-CEM leukemia.
Experiment [15] concerns HCC-2998 colon.

As for `CCOC(=O)CCc1c(C(=O)OCC)[nH]c(/C=C2/NC(=O)C(C)=C2CC)c1C`, the TGI in [1] is greater than 100 µM; in experiment [2] it was 37.9 µM; in experiment [3], greater than 100 µM; in experiment [4], 26.6 µM; in experiment [5], 13.1 µM; in experiment [6] it was 25.3 µM. The TGI is 29.8 µM in experiment [7]; 46.2 µM in [8]; 42.7 µM in [9]; greater than 100 µM in experiment [10]; 19.7 µM in [11]; 11.7 µM in experiment [12]. This molecule also gave a TGI in experiment [13] of 33.2 µM.

Consider `NC(=S)N/N=C/c1cc(CN2CCOCC2)c(N)cn1`, for which the TGI in experiment [1], in [2], in experiment [14], in [4], in experiment [5] and in experiment [6] was greater than 100 µM throughout. In addition, the TGI in experiment [7] is greater than 100 µM; in experiment [8], greater than 100 µM; in [9], 89.4 µM; in experiment [10], greater than 100 µM; in experiment [11] it was greater than 100 µM; in experiment [12], greater than 100 µM. This molecule returned a TGI in experiment [13] greater than 100 µM.

On to `Oc1ccccc1C=Nc1ccc(Oc2ccc(Cl)cc2)c(Cl)c1`, for which the TGI in experiment [1] was 53.6 µM; in [15], 45.7 µM; in experiment [2], 41.4 µM; in [14], 54.3 µM; in experiment [3] it was 58.7 µM; in experiment [5] it was greater than 100 µM. Moreover, the TGI in [6] is greater than 100 µM; in [7] it was 34.7 µM; in [8] it was 98.7 µM; in [9], 58.6 µM; in experiment [10], 79.5 µM; in [11], 49.6 µM. The TGI was determined as 45.4 µM in experiment [12] and 41.1 µM in [13].

For `C/C(C=O)=N\Nc1cc(C)c2ccccc2n1`, the TGI in experiment [1] is 33 µM; in [15], 29.3 µM; in experiment [2] it was 33 µM; in experiment [14] it was 29.3 µM; in [3] it was 43 µM; in experiment [5], 36.8 µM. Moreover, the TGI in [6] came to 36.6 µM; in experiment [7], 29.2 µM; in [8] it was 28.7 µM; in experiment [9], 30.3 µM; in [10], 34.3 µM; in [11], 28.2 µM. The TGI in experiment [12] was 25.9 µM; in experiment [13], 33.2 µM.

For `CSc1nc(C)cc(Nc2ccc(O)c(CN3CCCCC3)c2)n1`, the TGI is greater than 100 µM in experiment [2]; greater than 100 µM in experiment [3]; 75.4 µM in [4]; greater than 100 µM in [5]; greater than 100 µM in experiment [7]; 49.1 µM in experiment [8]. Also, the TGI in experiment [9], in experiment [10], in experiment [11], in experiment [12] and in [13] was greater than 100 µM each time.

For `COc1c(O)cc(/C=C/c2cc(O)cc3c2[C@@]2(C(=O)O3)c3c(O)cc(O)cc3OC2c2cccc(O)c2)cc1O` (stereo partly specified), the TGI in [1] is greater than 100 µM; in experiment [2], 64.3 µM; in [14] it was greater than 100 µM; in experiment [3], greater than 100 µM; in experiment [4] it was greater than 100 µM; in experiment [5], 11 µM. Also, the TGI is greater than 100 µM in experiment [6]; greater than 100 µM in experiment [7]; greater than 100 µM in experiment [8]; 72 µM in experiment [11]; greater than 100 µM in experiment [12]; greater than 100 µM in experiment [13].

In the case of `O=C(Nc1ccccc1)N1CCNC1=S`, the TGI in experiment [15] is 85.8 µM; in experiment [2], greater than 100 µM; in [14], greater than 100 µM; in experiment [3], greater than 100 µM; in experiment [4] it was greater than 100 µM; in experiment [5] it was greater than 100 µM. Moreover, the TGI in experiment [7], in [8], in [9], in experiment [10], in experiment [11] and in experiment [12] was greater than 100 µM each time. Further, the TGI in [13] was greater than 100 µM.

With `COc1ccc(NS(=O)CCc2ccccc2)cc1` (stereo unspecified), the TGI in experiment [15], in experiment [2], in experiment [14], in [3], in experiment [4] and in experiment [5] was greater than 100 µM throughout. For the same molecule, the TGI in experiment [6], in experiment [7], in experiment [8], in experiment [9], in experiment [10] and in [12] was greater than 100 µM in each case. Moreover, the TGI in [13] was greater than 100 µM.

Regarding `CSC1=N/C(=C\c2cccs2)C(=O)N1CN1CCCCC1`, the TGI in experiment [1], in [2], in [14], in [3], in experiment [4] and in experiment [5] was greater than 100 µM throughout. Further, the TGI in experiment [7], in [8], in experiment [9], in experiment [10], in experiment [11] and in [12] was greater than 100 µM in each case. In [13], this molecule had a TGI greater than 100 µM.

Values taken from PubChem BioAssay (NCI).
